Reference: patent publication US20250351820A1, “SUPRAMOLECULAR POROUS ORGANIC FRAMEWORKS FOR STORAGE AND DELIVERY OF VOLATILE GUESTS” (KANSAS STATE UNIVERSITY RESEARCH FOUNDATION, priority 2022, published 2025)

Assay type: physicochemical
Method: In one approach, the HOF encapsulated guest was prepared by dissolving trimesic acid and guest in methanol a 1:8 molar ratio. The mixture was stirred at room temperature for up to 48 hours. The solution was then left undisturbed allowing for slow evaporation to take place until crystals were obtained. For particularly oily guest molecules, an additional solvent was required to dissolve trimesic acid. Successful guest uptake was confirmed by single crystal X-ray diffraction (SCXRD). Thermogravimetric analysis was used to monitor the weight loss as a function of temperature, and ^1H NMR was used to confirm the presence of both host and guest in the sample.
In order to determine to what extent a particular guest is included within the host structure, we carried out thermal gravimetric analysis (TGA) on the resulting samples. A typical TGA measurement will record the weight-loss as a function of temperature and this will allow us to estimate the relative amount of solvent/guest/host present in a particular sample. […] The host itself begins to thermally degrade at around 250° C.

SMILES: O=C(O)c1cc(C(=O)O)cc(C(=O)O)c1 [trimesic acid]
- temperature at which the host begins to thermally degrade: around 250 °C
